# Data as given in PubChem BioAssay AID588741 (Johns Hopkins Ion Channel Center, 2011).
# The source made the active and inactive calls.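 The calls were made as follows: active = peak inhibition of the hERG potassium channel flux above 30% at some tested dose, plus a fitted dose response curve; inactive = no inhibition at any dose, or no curve.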
# Molecular target: Voltage-gated inwardly rectifying potassium channel KCNH2 (Homo sapiens) (UniProt Q12809)
# Assay: KCNH2 potassium flux blockade – cell-based, FluxOR thallium flux, CRC set 3, selectivity assay for KCNK9 inhibitor project, SAR follow-up (AID 588741)
# Conditions: hERG-expressing cells, FluxOR thallium flux fluorescence
# Voltage-gated inwardly rectifying potassium channel KCNH2 (Homo sapiens), sequence (Q12809 whole entry, looked up): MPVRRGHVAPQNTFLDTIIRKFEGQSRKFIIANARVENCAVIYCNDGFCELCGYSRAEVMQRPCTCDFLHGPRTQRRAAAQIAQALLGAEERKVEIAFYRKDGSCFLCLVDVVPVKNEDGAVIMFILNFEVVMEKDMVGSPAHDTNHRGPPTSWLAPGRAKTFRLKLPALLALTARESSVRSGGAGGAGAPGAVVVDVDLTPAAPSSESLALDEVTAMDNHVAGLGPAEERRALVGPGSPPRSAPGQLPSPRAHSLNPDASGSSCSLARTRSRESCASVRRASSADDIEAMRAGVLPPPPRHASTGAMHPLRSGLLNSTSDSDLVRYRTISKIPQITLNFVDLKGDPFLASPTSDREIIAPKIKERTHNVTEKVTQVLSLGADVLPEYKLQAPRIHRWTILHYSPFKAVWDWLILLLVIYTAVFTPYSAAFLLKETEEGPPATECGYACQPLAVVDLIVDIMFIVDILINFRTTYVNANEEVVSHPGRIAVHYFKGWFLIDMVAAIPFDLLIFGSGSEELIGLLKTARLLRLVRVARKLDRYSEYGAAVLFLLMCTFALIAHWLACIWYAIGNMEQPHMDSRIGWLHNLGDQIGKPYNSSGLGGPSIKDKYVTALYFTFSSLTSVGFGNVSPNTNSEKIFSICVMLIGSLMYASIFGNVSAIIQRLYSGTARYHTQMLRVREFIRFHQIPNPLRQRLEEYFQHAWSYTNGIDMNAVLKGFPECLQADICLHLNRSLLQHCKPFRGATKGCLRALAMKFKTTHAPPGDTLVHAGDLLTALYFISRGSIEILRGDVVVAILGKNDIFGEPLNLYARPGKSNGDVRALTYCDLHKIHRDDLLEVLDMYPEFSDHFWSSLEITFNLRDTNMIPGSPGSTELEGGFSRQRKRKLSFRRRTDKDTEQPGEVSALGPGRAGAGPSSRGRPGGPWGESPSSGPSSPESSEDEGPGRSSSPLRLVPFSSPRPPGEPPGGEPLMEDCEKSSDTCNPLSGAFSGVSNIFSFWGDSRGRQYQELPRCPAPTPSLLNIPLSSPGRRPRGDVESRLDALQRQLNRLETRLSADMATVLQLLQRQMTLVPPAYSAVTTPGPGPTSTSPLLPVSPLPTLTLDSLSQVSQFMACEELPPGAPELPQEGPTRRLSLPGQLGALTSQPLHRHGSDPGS
row,SMILES,IC50
1,COc1ccc(CCSc2nnc(-c3ccco3)n2C(C)C2CC3CCC2C3)cc1OC (stereo not drawn),16.7 µM
2,CC(C1CC2CCC1C2)n1c(SCc2ccccc2)nnc1-c1ccco1 (stereo not drawn),9.77 µM
3,CC(C1CC2CCC1C2)n1c(SCC(=O)c2ccc3c(c2)OCO3)nnc1-c1ccco1 (stereo not drawn),3.45 µM
4,COc1ccc(C(=O)CSc2nnc(-c3ccco3)n2C(C)C2CC3CCC2C3)cc1 (stereo not drawn),20.1 µM
5,CC(C1CC2CCC1C2)n1c(SCC(=O)c2ccccc2)nnc1-c1ccco1 (stereo not drawn),23.9 µM
6,COc1cccc(C(=O)CSc2nnc(-c3ccco3)n2C(C)C2CC3CCC2C3)c1 (stereo not drawn),17.2 µM
7,COc1ccc(C(=O)CSc2nnc(-c3ccco3)n2C(C)C2CC3CCC2C3)cc1OC (stereo not drawn),13.6 µM

# Same assay, conditions: hERG-expressing cells, FluxOR thallium flux fluorescence; at 30 µM (top of the series)
row,SMILES,"flux ratio, lower = inhibition"
1,CC(C1CC2CCC1C2)n1c(-c2ccco2)nnc1C(F)(F)F (stereo not drawn),inactive
2,COc1ccccc1C(=O)Nc1cccc(NC(=O)c2cccc3ccccc23)c1,inactive
3,CC(C1CC2CCC1C2)n1c(SCC(=O)c2ccc(Cl)c(Cl)c2)nnc1-c1ccco1 (stereo not drawn),inactive
4,CC(C1CC2CCC1C2)n1c(-c2ccccc2F)n[nH]c1=S (stereo not drawn),inactive
5,CC(C1CC2CCC1C2)n1c(-c2ccco2)n[nH]c1=S (stereo not drawn),inactive
6,CC(C1CC2CCC1C2)n1c(SC(F)F)nnc1-c1ccco1 (stereo not drawn),inactive
7,C[C@H](C1CCCCC1)n1c(-c2ccco2)n[nH]c1=S,inactive
8,CC(C1CC2CCC1C2)n1c(-c2ccc(N(C)C)cc2)n[nH]c1=S (stereo not drawn),inactive
9,CC(CC1CC2CCC1C2)n1c(-c2ccco2)n[nH]c1=S (stereo not drawn),inactive
10,CC(C1CC2CCC1C2)n1c(-c2ccncc2)n[nH]c1=S (stereo not drawn),inactive
11,CC(C)Oc1ccccc1C(=O)Nc1cccc(NC(=O)c2ccccc2OC(F)(F)F)c1,inactive
12,COc1cccc(Cc2n[nH]c(=S)n2C(C)C2CC3CCC2C3)c1 (stereo not drawn),inactive
13,CC(NC(=O)c1ccco1)C1CC2CCC1C2 (stereo not drawn),inactive
14,CC(C1CC2CCC1C2)n1c(-c2cccc(F)c2)n[nH]c1=S (stereo not drawn),inactive
15,CC(C1CC2CCC1C2)n1c(-c2cccc(N(C)C)c2)n[nH]c1=S (stereo not drawn),inactive
16,COc1cccc(-c2nnc(S(C)(=O)=O)n2C(C)C2CC3CCC2C3)c1 (stereo not drawn),inactive
17,CC(C1CC2CCC1C2)N(C)C(=O)c1ccco1 (stereo not drawn),inactive
18,CC(C1CC2CCC1C2)n1c(-c2ccco2)n[nH]c1=O (stereo not drawn),inactive

row,SMILES,"flux ratio, lower = inhibition"
1,CC(C1CC2CCC1C2)n1cnnc1-c1ccco1 (stereo not drawn),inactive
2,CC(C)c1ccccc1C(=O)Nc1cccc(NC(=O)c2ccccc2OC(F)(F)F)c1,inactive
3,COc1cc(OC)cc(-c2n[nH]c(=S)n2C(C)C2CC3CCC2C3)c1 (stereo not drawn),inactive
4,CC(c1cccc2ccccc12)n1c(-c2ccco2)n[nH]c1=S (stereo not drawn),inactive
5,CC(CCC1CCCC1)n1c(-c2ccco2)n[nH]c1=S (stereo not drawn),inactive
6,CC(C1CC2CCC1C2)n1c(-c2ccccn2)n[nH]c1=S (stereo not drawn),inactive
7,CSc1nnc(-c2ccco2)n1C(C)C1CC2CCC1C2 (stereo not drawn),inactive
8,CC(C1CCCCC1)n1c(-c2ccco2)n[nH]c1=S (stereo not drawn),inactive
9,CC(C1CC2CCC1C2)n1c(SCC#N)nnc1-c1cccs1 (stereo not drawn),inactive
10,CC(C1C2CCC1CC2)n1c(-c2ccco2)n[nH]c1=S (stereo not drawn),inactive
11,CC(C1CC2CCC1C2)n1c(-c2cccn2C)n[nH]c1=S (stereo not drawn),inactive
12,S=c1[nH]nc(-c2ccco2)n1C1CC2CCC1C2 (stereo not drawn),inactive
13,S=c1[nH]nc(-c2ccco2)n1CC1CC2CCC1C2 (stereo not drawn),inactive
14,CC(C1CC2CCC1C2)n1c(-c2cccs2)n[nH]c1=S (stereo not drawn),inactive
15,COc1cccc(-c2n[nH]c(=S)n2C(C)C2CC3CCC2C3)c1OC (stereo not drawn),inactive
16,COc1ccccc1C(=O)Nc1cc(NC(=O)c2ccccc2C(C)C)ccc1F,inactive
17,CC(C1CC2CCC1C2)n1c(-c2cccnc2)n[nH]c1=S (stereo not drawn),inactive
18,C[C@@H](C1CCCCC1)n1c(-c2ccco2)n[nH]c1=S,inactive
